Patent US20230233569A1 (Revolution Medicines, Inc., priority 2020, published 2023)
Like-named read-outs stand apart in the source and are kept apart here.

Tests used:
Details in all cases: Homo sapiens
[1] = test system: P70S6K (Thr389) phosphorylation (mTORC1) in MDA-MB-468 cells; assay: Cell based AlphaLISA assay, mTOR kinase cellular assay: inhibition of p-P70S6K (T389) in MDA-MB-468 cells
In short: (§1)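 MDA-MB-468 cells treated with compound at 0.017-1,000 nM for two to four hours at 37° C, then lysed. Phospho-AKT1/2/3 S473, 4EBP1 T37/46 and P70S6K T389 quantified by AlphaLISA SureFire Ultra in duplicate; IC50 from normalized regression with control-based normalization.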

[2] = test system: 4EBP1 (Thr37/46) phosphorylation (mTORC1) in MDA-MB-468 cells; assay: Cell based AlphaLISA assay, mTOR kinase cellular assay: inhibition of p-4E-BP1 (T37/46) in MDA-MB-468 cells
In short: as §1

[3] = test system: AKT1/2/3 (Ser473) phosphorylation (mTORC2) in MDA-MB-468 cells; assay: Cell based AlphaLISA assay, mTOR kinase cellular assay: inhibition of p-Akt (S473) in MDA-MB-468 cells
In short: as §1

[4] = read-out: pIC50 for Inhibition of mTORC1 and mTORC2 Substarte Phosphorylation p-P70S6K-(T389) (converted)
[5] = read-out: pIC50 for Inhibition of mTORC1 and mTORC2 Substarte Phosphorylation p-4E-BP1-(T37/46) (converted)
[6] = read-out: pIC50 for Inhibition of mTORC1 and mTORC2 Substarte Phosphorylation p-AKT1/2/3-(S473) (converted)

Row | SMILES | IC50 [1, 4] | IC50 [2, 5] | IC50 [3, 6] | IC50 ([1]; 4 h, two to four hours at 37° C., AlphaLisa SureFire Ultra, read-out: IC50 for Inhibition of mTORC1 and mTORC2 Substarte Phosphorylation, p-P70S6K-(T389)) | IC50 ([2]; 4 h, two to four hours at 37° C., AlphaLisa SureFire Ultra, read-out: IC50 for Inhibition of mTORC1 and mTORC2 Substarte Phosphorylation, p-4E-BP1-(T37/46)) | IC50 ([3]; 4 h, two to four hours at 37° C., AlphaLisa SureFire Ultra, read-out: IC50 for Inhibition of mTORC1 and mTORC2 Substarte Phosphorylation, p-AKT1/2/3-(S473))
1 | CO[C@H]1C[C@@H]2CC[C@@H](C)[C@@](O)(O2)C(=O)C(=O)N2CCCC[C@H]2C(=O)O[C@H]([C@H](C)C[C@@H]2CC[C@@H](OC(=O)NCCOCCOCCOCCOCCC(=O)NCCOCCOCCOCCOCCC(=O)N3CCc4cc(Cn5nc(-c6ccc7oc(N)nc7c6)c6c(N)ncnc65)ccc4C3)[C@H](OC)C2)C[C@@H](OC)[C@H](C)/C=C(\C)[C@@H](O)[C@@H](OC)C(=O)[C@H](C)C[C@H](C)/C=C/C=C/C=C/1C [Example 17] | ≤ 1 nM | ≤ 3.16 nM | 3.16 to 31.6 nM |  |  | 
2 | CO[C@H]1C[C@@H]2CC[C@@H](C)[C@@](O)(O2)C(=O)C(=O)N2CCCC[C@H]2C(=O)O[C@H]([C@H](C)C[C@@H]2CC[C@@H](OC(=O)NCCOCCOCCOCCOCCC(=O)NCc3cnc(N4CCN(c5ncc(C(=O)N6CCc7cc(Cn8nc(-c9ccc%10oc(N)nc%10c9)c9c(N)ncnc98)ccc7C6)cn5)CC4)nc3)[C@H](OC)C2)C[C@@H](O)[C@H](C)/C=C(\C)[C@@H](O)[C@@H](OC)C(=O)[C@H](C)C[C@H](C)/C=C/C=C/C=C/1C [Example 49] | ≤ 1 nM | ≤ 3.16 nM | 3.16 to 31.6 nM |  |  | 
3 | CO[C@H]1C[C@@H]2CC[C@@H](C)[C@@](O)(O2)C(=O)C(=O)N2CCCC[C@H]2C(=O)O[C@H]([C@H](C)C[C@@H]2CC[C@@H](OC(=O)NCCOCCOCCOCCOCCC(=O)NCc3cnc(N4CCN(c5ncc(C(=O)NCCCCn6nc(-c7cnc8[nH]ccc8c7)c7c(N)ncnc76)cn5)CC4)nc3)[C@H](OC)C2)CC(=O)[C@H](C)/C=C(\C)[C@@H](O)[C@@H](OC)C(=O)[C@H](C)C[C@H](C)/C=C/C=C/C=C/1C [Example 47] | ≤ 1 nM | ≤ 3.16 nM | 3.16 to 31.6 nM |  |  | 
4 | CO[C@H]1C[C@@H]2CC[C@@H](C)[C@@](O)(O2)C(=O)C(=O)N2CCCC[C@H]2C(=O)O[C@H]([C@H](C)C[C@@H]2CC[C@@H](OC(=O)NCCOCCOCCOCCOCCOCCOCCOCCOCC(=O)N3CCc4cc(Cn5nc(-c6ccc7oc(N)nc7c6)c6c(N)ncnc65)ccc4C3)[C@H](OC)C2)CC(=O)[C@H](C)/C=C(\C)[C@@H](O)[C@@H](OC)C(=O)[C@H](C)C[C@H](C)/C=C/C=C/C=C/1C [Example 71] | ≤ 1 nM | ≤ 3.16 nM | 3.16 to 31.6 nM |  |  | 
5 | CO[C@H]1C[C@@H]2CC[C@@H](C)[C@@](O)(O2)C(=O)C(=O)N2CCCC[C@H]2C(=O)O[C@H]([C@H](C)C[C@@H]2CC[C@@H](OC(=O)NCCOCCOCCOCCOCCC(=O)NCCOCCOCCOCCOCCC(=O)NCCCCn3nc(-c4cnc5[nH]ccc5c4)c4c(N)ncnc43)[C@H](OC)C2)CC(=O)[C@H](C)/C=C(\C)[C@@H](O)[C@@H](OC)C(=O)[C@H](C)C[C@H](C)/C=C/C=C/C=C/1C [Example 18] | ≤ 1 nM | 3.16 to 31.6 nM | 31.6 to 1000 nM |  |  | 
6 | CO[C@H]1C[C@@H]2CC[C@@H](C)[C@@](O)(O2)C(=O)C(=O)N2CCCC[C@H]2C(=O)O[C@H]([C@H](C)C[C@@H]2CC[C@@H](OC(=O)NCc3cnc(N4CCN(C(=O)CCOCCN5CCN(c6ncc(C(=O)NCCOCCC(=O)N7CCc8cc(Cn9nc(-c%10ccc%11oc(N)nc%11c%10)c%10c(N)ncnc%109)ccc8C7)cn6)CC5)CC4)nc3)[C@H](OC)C2)C[C@@H](OC)[C@H](C)/C=C(\C)[C@@H](O)[C@@H](OC)C(=O)[C@H](C)C[C@H](C)/C=C/C=C/C=C/1C [Example 65] | ≤ 1 nM | ≤ 3.16 nM | 31.6 to 1000 nM |  |  | 
7 | CO[C@H]1C[C@@H]2CC[C@@H](C)[C@@](O)(O2)C(=O)C(=O)N2CCCC[C@H]2C(=O)O[C@H]([C@H](C)C[C@@H]2CC[C@@H](OC(=O)NCc3cnc(N4CCN(CCOCCN5CCN(c6ncc(C(=O)N7CCc8cc(Cn9nc(-c%10cnc%11[nH]ccc%11c%10)c%10c(N)ncnc%109)ccc8C7)cn6)CC5)CC4)nc3)[C@H](OC)C2)CC(=O)[C@H](C)/C=C(\C)[C@@H](O)[C@@H](OC)C(=O)[C@H](C)C[C@H](C)/C=C/C=C/C=C/1C [Example 127] | ≤ 1 nM | 3.16 to 31.6 nM | > 1000 nM |  |  | 
8 | CO[C@H]1C[C@@H]2CC[C@@H](C)[C@@](O)(O2)C(=O)C(=O)N2CCCC[C@H]2C(=O)O[C@H]([C@H](C)C[C@@H]2CC[C@@H](O)[C@H](OC)C2)CC(=O)[C@H](C)/C=C(\C)[C@@H](O)[C@@H](OC)C(=O)[C@H](C)C[C@H](C)/C=C/C=C/C=C/1C [Rapamycin, rapamycin, reference compound] |  |  |  | 0.2 nM | > 1000 nM | > 1000 nM
9 | CO[C@H]1C[C@@H]2CC[C@@H](C)[C@@](O)(O2)C(=O)C(=O)N2CCCC[C@H]2C(=O)O[C@H]([C@H](C)C[C@@H]2CC[C@@H](OC(=O)N3CCc4nc(N5CCN(c6ncc(C(=O)NCCOCCOCCOCCOCCC(=O)N7CCc8cc(Cn9nc(-c%10ccc%11oc(N)nc%11c%10)c%10c(N)ncnc%109)ccc8C7)cn6)[C@@H](C(=O)O)C5)ncc4C3)[C@H](OC)C2)C[C@@H](OC)[C@H](C)/C=C(\C)[C@@H](O)[C@@H](OC)C(=O)[C@H](C)C[C@H](C)/C=C/C=C/C=C/1C [Example 105] | ≤ 1 nM | 3.16 to 31.6 nM | > 1000 nM |  |  | 
10 | CO[C@H]1C[C@@H]2CC[C@@H](C)[C@@](O)(O2)C(=O)C(=O)N2CCCC[C@H]2C(=O)O[C@H]([C@H](C)C[C@@H]2CC[C@@H](OC(=O)NCCOCCOCCOCCOCCOCCOCCC(=O)N3CCC(N4CCC(C(=O)N5CCc6cc(Cn7nc(-c8ccc9oc(N)nc9c8)c8c(N)ncnc87)ccc6C5)CC4)CC3)[C@H](OC)C2)C[C@@H](O)[C@H](C)/C=C(\C)[C@@H](O)[C@@H](OC)C(=O)[C@H](C)C[C@H](C)/C=C/C=C/C=C/1C [Example 113] | ≤ 1 nM | ≤ 3.16 nM | 3.16 to 31.6 nM |  |  | 
11 | CO[C@H]1C[C@@H]2CC[C@@H](C)[C@@](O)(O2)C(=O)C(=O)N2CCCC[C@H]2C(=O)O[C@H]([C@H](C)C[C@@H]2CC[C@@H](OC(=O)NCCOCCOCCOCCOCCOCCOCCC(=O)NC3CCN(CC(=O)N4CCc5cc(Cn6nc(-c7ccc8oc(N)nc8c7)c7c(N)ncnc76)ccc5C4)CC3)[C@H](OC)C2)C[C@@H](O)[C@H](C)/C=C(\C)[C@@H](O)[C@@H](OC)C(=O)[C@H](C)C[C@H](C)/C=C/C=C/C=C/1C [Example 112] | ≤ 1 nM | > 1000 nM | > 1000 nM |  |  | 
12 | CO[C@H]1C[C@@H]2CC[C@@H](C)[C@@](O)(O2)C(=O)C(=O)N2CCCC[C@H]2C(=O)O[C@H]([C@H](C)C[C@@H]2CC[C@@H](OC(=O)NCc3cnc(N4CCN(C(=O)CCOCCOCCN5CCN(c6ncc(C(=O)N7CCc8cc(Cn9nc(-c%10cnc%11[nH]ccc%11c%10)c%10c(N)ncnc%109)ccc8C7)cn6)CC5)CC4)nc3)[C@H](OC)C2)CC(=O)[C@H](C)/C=C(\C)[C@@H](O)[C@@H](OC)C(=O)[C@H](C)C[C@H](C)/C=C/C=C/C=C/1C [Example 123] | ≤ 1 nM | ≤ 3.16 nM | 31.6 to 1000 nM |  |  | 
13 | CO[C@H]1C[C@@H]2CC[C@@H](C)[C@@](O)(O2)C(=O)C(=O)N2CCCC[C@H]2C(=O)O[C@H]([C@H](C)C[C@@H]2CC[C@@H](OC(=O)N3CCc4nc(N5CCN(CCOCCN6CCN(c7ncc(C(=O)N8CCc9cc(Cn%10nc(-c%11cnc%12[nH]ccc%12c%11)c%11c(N)ncnc%11%10)ccc9C8)cn7)CC6)CC5)ncc4C3)[C@H](OC)C2)CC(=O)[C@H](C)/C=C(\C)[C@@H](O)[C@@H](OC)C(=O)[C@H](C)C[C@H](C)/C=C/C=C/C=C/1C [Example 128] | ≤ 1 nM | 3.16 to 31.6 nM | 31.6 to 1000 nM |  |  | 
